Data published in PubChem BioAssay AID180 (DTP/NCI, 2004).
Values joined by “and” are separate entries in the source; they are usually repeats but may differ in a detail not shown here. Equal entries are not always repeated.

System: BDF1 mice, Adenocarcinoma 755 s.c., tumor weight T/C
Test: NCI In Vivo Anticancer Drug Screen. Data for tumor model Adenocarcinoma 755 (subcutaneous) in B6D2F1 (BDF1) mice
Settings: endpoint: mean tumor weight, schedule: Q01DX011 (ip), higher = larger tumour
In short: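 Tumor-bearing mice receive test compound while controls get vehicle alone. Antitumor effect is scored from survival or tumor dimensions as a T/C quotient.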

[1] = dose: 6.25 mg/kg/injection, vehicle: methylcellulose (MC)
[2] = dose: 7.75 mg/kg/injection, vehicle: carboxymethylcellulose (CMC)
[3] = dose: 12.5 mg/kg/injection, vehicle: methylcellulose (MC)
[4] = dose: 6.2 mg/kg/injection, vehicle: carboxymethylcellulose (CMC)
[5] = dose: 6.0 mg/kg/injection, vehicle: carboxymethylcellulose (CMC)
[6] = dose: 125.0 mg/kg/injection, vehicle: methylcellulose (MC)
[7] = dose: 250.0 mg/kg/injection, vehicle: methylcellulose (MC)

In the case of `O=c1[nH]cc(F)c(=O)[nH]1`, the T/C (dose: 3.38 mg/kg/injection, vehicle: carboxymethylcellulose (CMC)) is reported as 106 % of control, the T/C (dose: 3.87 mg/kg/injection, vehicle: carboxymethylcellulose (CMC)) is reported as 61 % of control and the T/C (dose: 4.13 mg/kg/injection, vehicle: carboxymethylcellulose (CMC)) is reported as 48 % of control and 71 % of control. The T/C [1] was 91 % of control, the T/C (dose: 6.75 mg/kg/injection, vehicle: carboxymethylcellulose (CMC)) was 75 % of control and the T/C [2] was 103 % of control and 85 % of control. The T/C (dose: 8.27 mg/kg/injection, vehicle: carboxymethylcellulose (CMC)) was 151 % of control and 159 % of control, the T/C (dose: 10.8 mg/kg/injection, vehicle: carboxymethylcellulose (CMC)) was 156 % of control and the T/C [3] was 44 % of control. The T/C (dose: 13.24 mg/kg/injection, vehicle: carboxymethylcellulose (CMC)) was 76 % of control, the T/C (dose: 16.55 mg/kg/injection, vehicle: carboxymethylcellulose (CMC)) was 100 % of control and 224 % of control and 75 % of control and the T/C (dose: 18.0 mg/kg/injection, vehicle: carboxymethylcellulose (CMC)) was 108 % of control. The T/C (dose: 20.0 mg/kg/injection, vehicle: saline) was 15 % of control, the T/C (dose: 22.06 mg/kg/injection, vehicle: carboxymethylcellulose (CMC)) was 59 % of control and the T/C (dose: 25.0 mg/kg/injection, vehicle: methylcellulose (MC)) was 13 % of control. For the same compound, the T/C (dose: 25.0 mg/kg/injection, vehicle: saline) was 34 % of control, the T/C (dose: 27.0 mg/kg/injection, vehicle: carboxymethylcellulose (CMC)) was 18 % of control and 27 % of control and the T/C (dose: 30.0 mg/kg/injection, vehicle: saline) was 11 % of control. The T/C (dose: 33.1 mg/kg/injection, vehicle: carboxymethylcellulose (CMC)) was 27 % of control.
`[N-]=[N+]=[N-]` was tested, and the T/C (dose: 1.06 mg/kg/injection, vehicle: carboxymethylcellulose (CMC)) was 114 % of control, the T/C (dose: 1.55 mg/kg/injection, vehicle: carboxymethylcellulose (CMC)) was 75 % of control and the T/C (dose: 2.13 mg/kg/injection, vehicle: carboxymethylcellulose (CMC)) was 61 % of control. For the same compound, the T/C (dose: 3.1 mg/kg/injection, vehicle: carboxymethylcellulose (CMC)) was 82 % of control, the T/C (dose: 4.25 mg/kg/injection, vehicle: carboxymethylcellulose (CMC)) was 80 % of control and the T/C [4] was 57 % of control. The T/C (dose: 8.5 mg/kg/injection, vehicle: carboxymethylcellulose (CMC)) was 80 % of control and the T/C (dose: 12.4 mg/kg/injection, vehicle: carboxymethylcellulose (CMC)) was 80 % of control.
For `FC(F)(F)c1nc(=S)c2[nH]cnc2[nH]1`, the T/C [5] was 70 % of control, the T/C (dose: 25.0 mg/kg/injection, vehicle: carboxymethylcellulose (CMC)) was 81 % of control and the T/C (dose: 100.0 mg/kg/injection, vehicle: carboxymethylcellulose (CMC)) was 89 % of control.
In the case of `O=C(O)C(=O)c1ccc(-c2ccccc2)cc1`, the T/C (dose: 3.7 mg/kg/injection, vehicle: carboxymethylcellulose (CMC)) is reported as 99 % of control, the T/C (dose: 7.5 mg/kg/injection, vehicle: carboxymethylcellulose (CMC)) is reported as 100 % of control and the T/C (dose: 15.0 mg/kg/injection, vehicle: carboxymethylcellulose (CMC)) is reported as 87 % of control.
In the case of `O=S(=O)(Nc1ccccc1)c1ccc(C2CC3(Cl)C(Cl)=C(Cl)C2(Cl)C3(Cl)Cl)cc1` (configuration not stated), the T/C (dose: 28.12 mg/kg/injection, vehicle: methylcellulose (MC)) is reported as 90 % of control and 109 % of control, the T/C (dose: 112.5 mg/kg/injection, vehicle: methylcellulose (MC)) is reported as 95 % of control and 107 % of control and the T/C (dose: 225.0 mg/kg/injection, vehicle: methylcellulose (MC)) is reported as 69 % of control.
For `Nc1nc2c(nnn2C2OC(CO)C(O)C2O)c(=O)[nH]1` (configuration not stated), the T/C (dose: 12.0 mg/kg/injection, vehicle: methylcellulose (MC)) was 38 % of control.
With `Cc1cc(Nc2ccc(CCO)cc2)nc(N)n1` the T/C (dose: 15.0 mg/kg/injection, vehicle: methylcellulose (MC)) was 64 % of control, the T/C (dose: 31.0 mg/kg/injection, vehicle: methylcellulose (MC)) was 75 % of control and the T/C (dose: 62.0 mg/kg/injection, vehicle: methylcellulose (MC)) was 77 % of control. The T/C [6] was 85 % of control and the T/C [7] was 73 % of control.
With `Nc1ncnc2c1ncn2C1CCCC(CO)O1` (configuration not stated) the T/C (dose: 50.0 mg/kg/injection, vehicle: saline) was 196 % of control, the T/C (dose: 100.0 mg/kg/injection, vehicle: saline) was 115 % of control and the T/C (dose: 200.0 mg/kg/injection, vehicle: saline) was 93 % of control.
With `O=C(Nc1ccc(C2=NCCCN2)cc1)c1ccc(C(=O)Nc2ccc(C3=NCCCN3)cc2)cc1` the T/C (dose: 0.4 mg/kg/injection, vehicle: water) was 103 % of control, the T/C (dose: 0.8 mg/kg/injection, vehicle: water) was 117 % of control and the T/C (dose: 1.6 mg/kg/injection, vehicle: water) was 94 % of control. The T/C (dose: 3.2 mg/kg/injection, vehicle: water) was 97 % of control.
For `Cn1c(=O)c2c(ncn2CC(=O)O)n(C)c1=O`, the T/C (dose: 63.0 mg/kg/injection, vehicle: methylcellulose (MC)) was 106 % of control, the T/C [6] was 89 % of control and the T/C [7] was 112 % of control. For the same compound, the T/C (dose: 500.0 mg/kg/injection, vehicle: methylcellulose (MC)) was 117 % of control.
For `O=C(O)CCCc1ccc(N(CCCl)CCCl)cc1`, the T/C (dose: 0.5 mg/kg/injection, vehicle: carboxymethylcellulose (CMC)) was 93 % of control, the T/C (dose: 1.0 mg/kg/injection, vehicle: carboxymethylcellulose (CMC)) was 43 % of control and the T/C (dose: 1.25 mg/kg/injection, vehicle: methylcellulose (MC)) was 31 % of control. For the same compound, the T/C (dose: 1.81 mg/kg/injection, vehicle: carboxymethylcellulose (CMC)) was 60 % of control, the T/C (dose: 1.94 mg/kg/injection, vehicle: carboxymethylcellulose (CMC)) was 38 % of control and the T/C (dose: 2.0 mg/kg/injection, vehicle: saline) was 99 % of control. For the same compound, the T/C (dose: 2.5 mg/kg/injection, vehicle: methylcellulose (MC)) was 89 % of control, the T/C (dose: 3.63 mg/kg/injection, vehicle: carboxymethylcellulose (CMC)) was 34 % of control and the T/C (dose: 3.88 mg/kg/injection, vehicle: carboxymethylcellulose (CMC)) was 37 % of control. For the same compound, the T/C (dose: 4.0 mg/kg/injection, vehicle: saline) was 49 % of control, the T/C (dose: 5.0 mg/kg/injection, vehicle: methylcellulose (MC)) was 33 % of control and the T/C (dose: 5.8 mg/kg/injection, vehicle: carboxymethylcellulose (CMC)) was 41 % of control. The T/C [4] was 75 % of control, the T/C [1] was 26 % of control and the T/C (dose: 7.25 mg/kg/injection, vehicle: carboxymethylcellulose (CMC)) was 30 % of control and 48 % of control. For the same compound, the T/C [2] was 16 % of control and 29 % of control, the T/C (dose: 8.0 mg/kg/injection, vehicle: saline) was 37 % of control and the T/C (dose: 9.66 mg/kg/injection, vehicle: carboxymethylcellulose (CMC)) was 9 % of control. For the same compound, the T/C (dose: 10.0 mg/kg/injection, vehicle: methylcellulose (MC)) was 10 % of control, the T/C (dose: 10.33 mg/kg/injection, vehicle: carboxymethylcellulose (CMC)) was 14 % of control and the T/C [3] was 5 % of control. For the same compound, the T/C (dose: 14.5 mg/kg/injection, vehicle: carboxymethylcellulose (CMC)) was 2 % of control and 6 % of control, the T/C (dose: 15.5 mg/kg/injection, vehicle: carboxymethylcellulose (CMC)) was 4 % of control and the T/C (dose: 1812.0 micrograms/kg/injection, vehicle: carboxymethylcellulose (CMC)) was 118 % of control. For the same compound, the T/C (dose: 3625.0 micrograms/kg/injection, vehicle: carboxymethylcellulose (CMC)) was 58 % of control and the T/C (dose: 7250.0 micrograms/kg/injection, vehicle: carboxymethylcellulose (CMC)) was 59 % of control.
With `CCCCNS(=O)(=O)c1ncnc2nc[nH]c12` the T/C (dose: 2.0 mg/kg/injection, vehicle: carboxymethylcellulose (CMC)) was 115 % of control, the T/C [5] was 44 % of control and the T/C (dose: 12.0 mg/kg/injection, vehicle: carboxymethylcellulose (CMC)) was 13 % of control.
